{"source": "patent US10604554B2", "about": "“Double-acylated GLP-1 derivatives” (Novo Nordisk A/S, priority 2012, dated 2020)", "key": {"human GLP-1 receptor [1]": {"biological_target": "T1, human GLP-1 receptor (Homo sapiens, UniProt P43220)", "T1 construct": "expressed in transfected cells; host or cells: BHK cells, clone FCW467-12A/KZ10-1 (parent line BHKTS13), further transfected with CRE luciferase", "T1 sequence (P43220 24-463)": "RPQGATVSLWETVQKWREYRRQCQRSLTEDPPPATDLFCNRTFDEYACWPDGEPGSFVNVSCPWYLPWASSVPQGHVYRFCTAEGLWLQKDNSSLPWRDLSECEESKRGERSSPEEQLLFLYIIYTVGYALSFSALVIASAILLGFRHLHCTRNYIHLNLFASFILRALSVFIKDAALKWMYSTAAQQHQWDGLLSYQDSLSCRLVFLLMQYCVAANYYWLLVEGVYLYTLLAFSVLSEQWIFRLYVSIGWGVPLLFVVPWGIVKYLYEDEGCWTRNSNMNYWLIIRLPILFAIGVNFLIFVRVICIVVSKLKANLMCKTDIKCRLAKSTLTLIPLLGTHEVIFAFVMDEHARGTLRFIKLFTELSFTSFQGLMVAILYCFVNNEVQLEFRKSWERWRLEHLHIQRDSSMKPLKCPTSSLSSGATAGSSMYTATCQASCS", "assay": "In vitro potency (CRE luciferase; whole cells)", "format": "cell-based", "set-up": "EC50/pM (ratio 1% HSA/0% HSA): unit not given here", "conditions": "for EC50: BHK cells", "description": "The purpose of this example is to test the activity, or potency, of the GLP-1 derivatives in vitro. The in vitro potency is the measure of human GLP-1 receptor activation in a whole cell assay.\nIn vitro potency was determined by measuring the response of human GLP-1 receptor in a reporter gene assay. The assay was performed in a stably transfected BHK cell line that expresses the human GLP-1 receptor and contains the DNA for the cAMP response element (CRE) coupled to a promoter and the gene for firefly luciferase (CRE luciferase). When the human GLP-1 receptor was activated it results in the production of cAMP, which in turn results in the luciferase protein being expressed. When assay incubation was completed the luciferase substrate (luciferin) was added and the enzyme converts luciferin to oxyluciferin and produces bioluminescence. The luminescence was measured and was the readout for the assay.\nAn increase of the in vitro potency, EC50 value, in the presence of serum albumin indicates an affinity to serum albumin and represents a method to predict a protracted pharmacokinetic profile of the test substance in animal models.\nThe cells were cultured at 5% CO2 in cell culture medium. They were aliquoted and stored in liquid nitrogen. Before each assay an aliquot was taken up and washed twice in PBS before being suspended at the desired concentration in the assay specific buffer.\nThe following chemicals were used in the assay: Pluronic F-68 (10%) (Gibco 2404), human serum albumin (HSA) (Sigma A9511), ovalbumin (Sigma A5503), DMEM w/o phenol red (Gibco 11880-028), 1 M Hepes (Gibco 15630), Glutamax 100× (Gibco 35050) and steadylite plus (PerkinElmer 6016757).\n1) Cell stocks were thawed in a 37° C. water bath.\n2) Cells were washed three times in PBS.\n3) The cells were counted and adjusted to 5×10^3 cells/50 μl (1×10^5 cells/ml) in assay medium. A 50 μl aliquot of cells was transferred to each well in the assay plate.\n4) Stocks of the test compounds and reference compounds were diluted to a concentration of 0.2 μM in 0% assay buffer for the 0% HSA CRE luciferase assay and 1% assay buffer for the HSA CRE luciferase assay. […] 5) A 50 μl aliquot of compound or blank was transferred in triplicate from the dilution plate to the assay plate. […] 7) The assay plate was removed from the incubator and allowed to stand at room temperature for 15 min. 8) A 100 μl aliquot of steadylite plus reagent was added to each well of the assay plate (reagent was light sensitive). 9) Each assay plate was covered with aluminum foil to protect it from light and shaken for 30 min at room temperature. 10) Each assay plate was read in a Packard TopCount NXT instrument. Calculations and Results\nThe data from the TopCount instrument were transferred to GraphPad Prism software. The software averages the values for each replicate and performs a non-linear regression."}, "human GLP-1 receptor [2]": {"biological_target": "T1, human GLP-1 receptor", "assay": "GLP-1 receptor binding (SPA, displacement of 125I-GLP-1)", "description": "The purpose of this experiment is to investigate the binding to the GLP-1 receptor of the GLP-1 derivatives, and how the binding is potentially influenced by the presence of albumin. This is done in an in vitro experiment as described below.\nIn order to test the binding of the derivatives to albumin, the assay was performed with a low concentration of albumin (0.001%—corresponding to the residual amount thereof in the tracer), as well as with a high concentration of albumin (2.0% added). A shift in the binding affinity, IC50, is an indication that the peptide in question binds to albumin, and thereby a prediction of a potential protracted pharmacokinetic profile of the peptide in question in animal models.\nSpecies (in vitro): Hamster\nBiological End Point: Receptor Binding\nA stable transfected cell line and a high expressing clone were selected for screening. The cells were grown at 5% CO2 in DMEM, 10% FCS, 1% Pen/Strep (Penicillin/Streptomycin) and 1.0 mg/ml of the selection marker G418.\nThe cells (approx. 80% confluence) were washed twice in PBS and harvested with Versene (aqueous solution of the tetrasodium salt of ethylenediaminetetraacetic acid), following which they were separated by centrifugation at 1000 rpm for 5 min. The cells/cell pellet must be kept on ice to the extent possible in the subsequent steps. The cell pellet was homogenised with Ultrathurrax for 20-30 seconds in a suitable amount of Buffer 1 (depending on the amount of cells, but e.g. 10 ml). The homogenate was centrifuged at 20000 rpm for 15 minutes. The pellet was resuspended (homogenised) in 10 ml Buffer 2 and re-centrifuged. This step was repeated once more. The resulting pellet was resuspended in Buffer 2, and the protein concentration was determined. The membranes were stored at minus 80° C.\nBuffer 1:20 mM Na-HEPES+10 mM EDTA, pH 7.4\nBuffer 2:20 mM Na-HEPES+0.1 mM EDTA, pH 7.4\nTest compounds, membranes, SPA-particles and [^125I]-GLP-1(7-36)NH2 were diluted in assay buffer. 50 ul (micro liter) HSA (“high albumin” experiment containing 2% HSA), or buffer (“low albumin” experiment containing 0.001% HSA) was added to Optiplate, and 25 ul of test compounds were added. 5-10 ug membrane protein/sample was added (50 ul) corresponding to 0.1-0.2 mg protein/ml (to be preferably optimised for each membrane preparation). SPA-particles (Wheatgerm agglutinin SPA beads, Perkin Elmer, # RPNQ0001) were added in an amount of 0.5 mg/well (50 ul). The incubation was started with [^125I]-GLP-1]-(7-36)NH2 (final concentration 0.06 nM corresponding to 49.880 DPM, 25 ul). The plates were sealed with PlateSealer and incubated for 120 minutes at 30° C. while shaking. The plates were centrifuged (1500 rpm, 10 min) and counted in Topcounter."}, "[3]": {"conditions": "In vitro potency (CRE luciferase) EC50 (0% HSA), 0% HSA"}, "[4]": {"conditions": "In vitro potency (CRE luciferase) EC50 (1% HSA), 1% HSA"}, "[5]": {"conditions": "Receptor binding affinity IC50 (high HSA), 2.0% HSA (high albumin)"}}, "data": [{"smiles": "CC[C@H](C)[C@H](NC(=O)[C@H](Cc1ccccc1)NC(=O)[C@H](CCC(=O)O)NC(=O)[C@H](CCCCNC(=O)[C@@H](N)CCCCNC(=O)[C@@H](N)CCCCNC(=O)COCCOCCNC(=O)COCCOCCNC(=O)CC[C@H](NC(=O)CCCCCCCCCCOc1ccc(C(=O)O)cc1)C(=O)O)NC(=O)[C@H](C)NC(=O)[C@H](C)NC(=O)[C@H](CCC(N)=O)NC(=O)CNC(=O)[C@H](CCC(=O)O)NC(=O)[C@H](CC(C)C)NC(=O)[C@H](Cc1ccc(O)cc1)NC(=O)[C@H](CO)NC(=O)[C@H](CO)NC(=O)[C@@H](NC(=O)[C@H](CC(=O)O)NC(=O)[C@H](CO)NC(=O)[C@@H](NC(=O)[C@H](Cc1ccccc1)NC(=O)[C@@H](NC(=O)CNC(=O)[C@H](CCC(=O)O)NC(=O)C(C)(C)NC(=O)[C@@H](N)Cc1c[nH]cn1)[C@@H](C)O)[C@@H](C)O)C(C)C)C(=O)N[C@@H](C)C(=O)N[C@@H](Cc1c[nH]c2ccccc12)C(=O)N[C@@H](CC(C)C)C(=O)N[C@H](C(=O)N[C@@H](CCCNC(=N)N)C(=O)NCC(=O)N[C@@H](CCCNC(=N)N)C(=O)N[C@@H](CCCCNC(=O)[C@@H](N)CCCCNC(=O)[C@@H](N)CCCCNC(=O)COCCOCCNC(=O)COCCOCCNC(=O)CC[C@H](NC(=O)CCCCCCCCCCOc1ccc(C(=O)O)cc1)C(=O)O)C(=O)O)C(C)C", "note": "[Example 33]", "values": [{"measurement": "EC50", "setting": "human GLP-1 receptor [1]; [3]", "result": 0.0074, "unit": "nM"}, {"measurement": "EC50", "setting": "human GLP-1 receptor [1]; [4]", "result": 0.069, "unit": "nM"}, {"measurement": "EC50/pM (ratio 1% HSA/0% HSA)", "setting": "human GLP-1 receptor [1]; ratio of EC50 at 1% HSA to EC50 at 0% HSA", "result": 11}, {"measurement": "IC50", "setting": "human GLP-1 receptor [2]; [5]", "result": 33, "unit": "nM"}, {"measurement": "IC50", "setting": "human GLP-1 receptor [2]; Receptor binding affinity IC50 (low HSA), 0.001% HSA (low albumin)", "result": 0.31, "unit": "nM"}]}, {"smiles": "CC[C@H](C)[C@H](NC(=O)[C@H](Cc1ccccc1)NC(=O)[C@H](CCC(=O)O)NC(=O)[C@H](CCCCNC(=O)[C@@H](N)CCCCNC(=O)[C@@H](N)CCCCNC(=O)CC[C@H](NC(=O)CC[C@H](NC(=O)CCCCCCCCCCOc1ccc(C(=O)O)cc1)C(=O)O)C(=O)O)NC(=O)[C@H](C)NC(=O)[C@H](C)NC(=O)[C@H](CCC(N)=O)NC(=O)CNC(=O)[C@H](CCC(=O)O)NC(=O)[C@H](CC(C)C)NC(=O)[C@H](Cc1ccc(O)cc1)NC(=O)[C@H](CO)NC(=O)[C@H](CO)NC(=O)[C@@H](NC(=O)[C@H](CC(=O)O)NC(=O)[C@H](CO)NC(=O)[C@@H](NC(=O)[C@H](Cc1ccccc1)NC(=O)[C@@H](NC(=O)CNC(=O)[C@H](CCC(=O)O)NC(=O)C(C)(C)NC(=O)[C@@H](N)Cc1c[nH]cn1)[C@@H](C)O)[C@@H](C)O)C(C)C)C(=O)N[C@@H](C)C(=O)N[C@@H](Cc1c[nH]c2ccccc12)C(=O)N[C@@H](CC(C)C)C(=O)N[C@H](C(=O)N[C@@H](CCCNC(=N)N)C(=O)NCC(=O)N[C@@H](CCCNC(=N)N)C(=O)N[C@@H](CCCCNC(=O)[C@@H](N)CCCCNC(=O)[C@@H](N)CCCCNC(=O)CC[C@H](NC(=O)CC[C@H](NC(=O)CCCCCCCCCCOc1ccc(C(=O)O)cc1)C(=O)O)C(=O)O)C(=O)O)C(C)C", "note": "[Example 38, N^ε26-[(2S)-2-amino-6-[[(2S)-2-amino-6-[[(4S)-4-carboxy-4-[[(4S)-4-carboxy-4-[11-(4-carboxyphenoxy)undecanoylamino]butanoyl]amino]butanoyl]amino]hexanoyl]amino]hexanoyl], N^ε37-[(2S)-2-amino-6-[[(2S)-2-amino-6-[[(4S)-4-carboxy-4-[[(4S)-4-carboxy-4-[11-(4-carboxyphenoxy)undecanoylamino]butanoyl]amino]butanoyl]amino]hexanoyl]amino]hexanoyl]-[Aib^8,Arg^34,Lys^37]-GLP-1-(7-37)-peptide]", "values": [{"measurement": "EC50", "setting": "human GLP-1 receptor [1]; [3]", "result": 0.0076, "unit": "nM"}, {"measurement": "EC50", "setting": "human GLP-1 receptor [1]; [4]", "result": 0.189, "unit": "nM"}, {"measurement": "IC50", "setting": "human GLP-1 receptor [2]; [5]", "result": 53, "unit": "nM"}]}, {"smiles": "CC[C@H](C)[C@H](NC(=O)[C@H](Cc1ccccc1)NC(=O)[C@H](CCC(=O)O)NC(=O)[C@H](CCCCNC(=O)[C@@H](N)CCCCNC(=O)[C@H](CO)NC(=O)CNC(=O)[C@H](CO)NC(=O)CC[C@H](NC(=O)CCCCCCCCCCCOc1ccc(C(=O)O)cc1)C(=O)O)NC(=O)[C@H](C)NC(=O)[C@H](C)NC(=O)[C@H](CCC(N)=O)NC(=O)CNC(=O)[C@H](CCC(=O)O)NC(=O)[C@H](CC(C)C)NC(=O)[C@H](Cc1ccc(O)cc1)NC(=O)[C@H](CO)NC(=O)[C@H](CO)NC(=O)[C@@H](NC(=O)[C@H](CC(=O)O)NC(=O)[C@H](CO)NC(=O)[C@@H](NC(=O)[C@H](Cc1ccccc1)NC(=O)[C@@H](NC(=O)CNC(=O)[C@H](CCC(=O)O)NC(=O)C(C)(C)NC(=O)CCc1c[nH]cn1)[C@@H](C)O)[C@@H](C)O)C(C)C)C(=O)N[C@@H](C)C(=O)N[C@@H](Cc1c[nH]c2ccccc12)C(=O)N[C@@H](CC(C)C)C(=O)N[C@H](C(=O)N[C@@H](CCCNC(=N)N)C(=O)NCC(=O)N[C@@H](CCCNC(=N)N)C(=O)N[C@@H](CCCCNC(=O)[C@@H](N)CCCCNC(=O)[C@H](CO)NC(=O)CNC(=O)[C@H](CO)NC(=O)CC[C@H](NC(=O)CCCCCCCCCCCOc1ccc(C(=O)O)cc1)C(=O)O)C(=O)O)C(C)C", "note": "[Example 25]", "values": [{"measurement": "EC50", "setting": "human GLP-1 receptor [1]; [4]", "result": 0.124, "unit": "nM"}, {"measurement": "IC50", "setting": "human GLP-1 receptor [2]; [5]", "result": 274, "unit": "nM"}]}]}
